Where two headings read alike, the source gives them in different places.

The test addresses human Pim-1 (Homo sapiens (Human), UniProt P11309). Put plainly: biochemical. It is filed as biochemical. The note with it: Ki converted from IC50, purified human Pim-1, Pim2tide substrate, ADP-Glo. On the procedure:
The human Pim-1 inhibitory activity of the test compounds was evaluated as follows.
(1) Purification of Human Pim-1
DNA fragment in which a His-Tag sequence and a translation termination sequence are added to the 3′-end of human Pim-1 translation sequence was amplified by PCR (Polymerase Chain Reaction), using human Pim-1 gene-inserted plasmid DNA (Kazusa DNA Laboratory, model number FXC11400) as a template. The amplified DNA fragment was fused with pGEx-6P-1 (GE Healthcare Japan, model number 27-4597-1) digested with BamHI and EcoRI using In-Fusion HD Cloning Kit (Takara Bio, model number 639649). […] The base sequence of Pim-1 cloned into vector was determined by Dye Terminator method using BigDye Terminator v3.1 Cycle Sequencing Kit (Applied Biosystems, model number 4337456). […] Escherichia coli BL21 (DE3) (Merck KGaA, model number 69449-4) transformed with human Pim-1-expressed plasmid DNA was cultured in 2×YT medium (Becton Dickinson, model number 2404020) at 30° C., until the optical concentration at 620 nm (OD620) reached 0.6, and then cultured overnight at 20° C. in the presence of 0.5 mmol/L isopropyl b-D-1-thiogalactopyranoside. After the completion of so the culture, the cells were collected and suspended in Homogenate Buffer (50 mmol/L Tris-HCl (pH 7.5), 500 mmol/L NaCl, 1% Tween20, complete, EDTA-free (Roche, model number 1873580)), and the suspended cells were lysed by passing through a microfluidizer M-110H (Mizuho Kogyo Co., Ltd.). The lysate was centrifuged at 10,100×g for 10 minutes, 4° C., and the supernatant was filtered through MILLEX-HV Filter (0.45 μm) (Millipore, SLHV033RS) to remove the cell residues. The filtrate was loaded onto complete His-Tag Purification Resin (Roche Diagnostics, model number 05 893 682 0.01). The column was washed with Equilibration Buffer-1 (50 mmol/L Tris-HCl (pH 7.5), 500 mmol/L NaCl, 1% Tween 20) containing 5 mmol/L Imidazole, followed by Equilibration Buffer-1 containing 50 mmol/L Imidazole, the human Pim-1 to which GST-Tag derived from pGEx-6P-1 was eluted with Equilibration Buffer-1 containing 150 mmol/L imidazole. […] The protease reaction was carried out by stirring overnight at 4° C., and the human Pim-1 in which the GST-Tag sequence was cleaved was eluted. The eluate was loaded onto a gel filtration column (Superdex-200 […] (GE Healthcare, model number 17-5175-01)) equilibrated with Equilibration Buffer-3 (50 mmol/L Tris-HCl (pH 7.5), 500 mmol/L NaCl, 0.05% Tween20, 0.5 mmol/L EDTA, 2 mmol/L DTT, 10% Glycerol), and eluted. The eluate was used as a human Pim-1 purified fraction.
The protein concentration of the human Pim-1 purified fraction was measured with Pierce 660 nm Protein Assay Reagent (Thermo Fisher Scientific, model number 22660). The purified fraction was rapidly frozen in liquid nitrogen, and then stored at −80° C. The His-Tag-added human Pim-1 was detected by Western blotting using a mouse anti-His monoclonal antibody (WAKO, model number 011-23091).
(2) Evaluation of Human Pim-1 Inhibitory Activity
The calculation of the Pim-1 inhibitory activity of the compound was performed using the following solution according to the protocol attached to ADP-Glo Kinase Assay (cat. V9102, Promega). The purified enzyme of human Pim-1 described above was used.
(i) Preparation of Solution
The kinase buffer solution (50 mmol/L HEPES (pH 7.5), 5 mmol/L MgCl2, 1 mmol/L DTT, 0.05% BSA) was prepared by dissolving HEPES (Jena Bioscience), MgCl2 (Sigma-Aldrich), DTT (Sigma-Aldrich) and BSA (Sigma-Aldrich) in purified water.
The ATP solution (288 μmol/L) was prepared by dissolving 100 mmol/L ATP (Promega) in the kinase buffer solution.
In general terms: In ADP-Glo the light output rises with the ADP produced.

Sequence of human Pim-1 (P11309 whole entry): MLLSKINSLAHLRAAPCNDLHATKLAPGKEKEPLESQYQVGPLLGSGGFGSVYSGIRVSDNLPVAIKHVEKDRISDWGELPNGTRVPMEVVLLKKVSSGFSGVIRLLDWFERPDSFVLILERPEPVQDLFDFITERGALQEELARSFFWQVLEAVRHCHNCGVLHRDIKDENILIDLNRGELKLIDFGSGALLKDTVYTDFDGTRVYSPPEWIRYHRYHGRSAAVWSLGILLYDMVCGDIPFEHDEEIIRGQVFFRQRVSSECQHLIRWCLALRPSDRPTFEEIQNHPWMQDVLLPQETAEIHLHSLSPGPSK

`N#CC1(CCO)CCOC(CCN2CCNC(=O)c3oc4ccc(C(F)(F)F)cc4c32)C1` (racemic) [Example 7]: for the setting “read-out: hPim1 Ki”, the Ki was 0.468 nM.
For the setting “hPim1 Ki (nM)”, `CC1(O)CCOC(C(F)(F)CN2CCNC(=O)c3oc4ccc(C(F)(F)F)cc4c32)C1` (racemic) [Example 11, 1-(2,2-difluoro-2-(4-hydroxy-4-methyltetrahydro-2H-pyran-2-yl)ethyl)-9-(trifluoromethyl)-1,2,3,4-tetrahydro-5H-benzofuro[3,2-e][1,4]diazepin-5-one] displayed a Ki of 0.0596 nM.
Same read-out and setting: the result for `CC1(O)CCOC(C(F)(F)CN2CCNC(=O)c3oc4ccc(C(F)(F)F)cc4c32)C1` (racemic) [Example 12, 1-(2,2-difluoro-2-(4-hydroxy-4-methyltetrahydro-2H-pyran-2-yl)ethyl)-9-(trifluoromethyl)-1,2,3,4-tetrahydro-5H-benzofuro[3,2-e][1,4]diazepin-5-one] reads 0.0388 nM.
With `COC(C1CC(O)(CO)C1)C1(CN2CCNC(=O)c3oc4ccc(C(F)(F)F)cc4c32)CC1` (racemic) [Example 22], the inhibition constant (Ki) (read-out: hPim1 Ki) worked out at 0.848 nM.
Same read-out and setting: the result for `COC(C1CC(O)(CO)C1)C1(CN2CCNC(=O)c3oc4ccc(C(F)(F)F)cc4c32)CC1` (racemic) [Example 23] reads 0.805 nM; that for `O=C1NCCN(CC(F)(F)C2CC3(CCO2)OCCO3)c2c1oc1ccc(C(F)(F)F)cc21` (racemic) [Example 46], 0.0715 nM.
Same read-out and setting: the result for `O=C1NCCN(CC(F)(F)C2CC3(CCC2(F)F)OCCO3)c2c1oc1ccc(C(F)(F)F)cc21` (racemic) [Example 55] reads 0.115 nM.
Consider `O=C1NCCN(CC(F)(F)C2COCCO2)c2c1oc1ccc(C(F)(F)F)cc21` (racemic) [Example 56], for which, under “hPim1 Ki (nM)”, the inhibition constant Ki amounted to 0.0723 nM.
Turning to `O=C1NCCN(CC(F)(F)C2CC3(CCO2)COC3)c2c1oc1ccc(C(F)(F)F)cc21` (racemic) [Example 57], the Ki (read-out: hPim1 Ki) turned out to be 0.0448 nM.
Same read-out and setting: then `O=C1CCC(F)(F)C(C(F)(F)CN2CCNC(=O)c3oc4ccc(C(F)(F)F)cc4c32)C1` (racemic) [Example 61], with 0.0391 nM.
The same measure, in the same setting: the result for `O=C1NCCN(CCC2COCCO2)c2c1oc1c(F)cc(C(F)(F)F)cc21` (racemic) [Example 76] reads 0.399 nM; that for `CC1COCC(CCN2CCNC(=O)c3oc4ccc(C(F)(F)F)cc4c32)O1` (racemic) [Example 114], 0.708 nM; that for `CC1COCC(CCN2CCNC(=O)c3oc4ccc(C(F)(F)F)cc4c32)O1` (racemic) [Example 115], 0.672 nM.
For `N#CC[C@H]1CO[C@H](CCN2CCNC(=O)c3oc4ccc(C(F)(F)F)cc4c32)CO1` (racemic) [Example 129], under “read-out: hPim1 Ki”, the Ki worked out at 1.18 nM.
With `CS(=O)(=O)C[C@H]1CO[C@H](CCN2CCNC(=O)c3oc4ccc(C(F)(F)F)cc4c32)CO1` (racemic) [Example 130], the Ki (read-out: hPim1 Ki) came to 1.16 nM.
Same read-out and setting: the result for `O=C1NCCN(CCC2COCC(CO)O2)c2c1oc1ccc(C(F)(F)F)cc21` (racemic) [Example 132] reads 3.59 nM; that for `O=C1NCCN(CCC2COCC(CO)O2)c2c1oc1ccc(C(F)(F)F)cc21` (racemic) [Example 133], 1.58 nM; that for `O=C1NCCN(CCC2COCC(CF)O2)c2c1oc1ccc(C(F)(F)F)cc21` (racemic) [Example 134], 0.753 nM.
For the molecule `O=C1NCCN(CCC2COCC(CF)O2)c2c1oc1ccc(C(F)(F)F)cc21` (racemic) [Example 135], for the setting “read-out: hPim1 Ki”, the inhibitory constant (Ki) amounted to 0.66 nM.
In the case of `CS(=O)(=O)CC1COCC(CCN2CCNC(=O)c3oc4ccc(C(F)(F)F)cc4c32)O1` (racemic) [Example 136], the inhibition constant Ki (read-out: hPim1 Ki) is 16 nM.
On the same count and under the same terms, the result for `CS(=O)(=O)CC1COCC(CCN2CCNC(=O)c3oc4ccc(C(F)(F)F)cc4c32)O1` (racemic) [Example 137] reads 5.36 nM.
The same measure, in the same setting: the result for `N#CCC1COCC(CCN2CCNC(=O)c3oc4ccc(C(F)(F)F)cc4c32)O1` (racemic) [Example 139] reads 3.69 nM; that for `N#CCC1COCC(CCN2CCNC(=O)c3oc4ccc(C(F)(F)F)cc4c32)O1` (racemic) [Example 140], 5.8 nM.
In the case of `CS(=O)(=O)C[C@H]1CO[C@@H](CCN2CCNC(=O)c3oc4ccc(C(F)(F)F)cc4c32)CO1` (racemic) [Example 141], for the setting “read-out: hPim1 Ki”, the Ki is 10.3 nM.
As for `N#CC[C@H]1CO[C@@H](CCN2CCNC(=O)c3oc4ccc(C(F)(F)F)cc4c32)CO1` (racemic) [Example 142], for the setting “read-out: hPim1 Ki”, the inhibition constant Ki was determined as 4.4 nM.
Still for that read-out and setting: then `O=C1NCCN(CCC2CC3(CC(CO)C3)C2)c2c1oc1ccc(C(F)(F)F)cc21` (racemic) [Example 143], with 0.947 nM.
In turn, `[2H]C1(O)CCC(CCN2CCNC(=O)c3oc4ccc(C(F)(F)F)cc4c32)CC1` (relative stereo) [Example 91] had a Ki (hPim1 Ki (nM)) of 0.198 nM.
`O=C1NCCN(CC(F)(F)C2CC(CO)CCO2)c2c1oc1ccc(C(F)(F)F)cc21` (single isomer, unassigned) [Example 14] gave a Ki (hPim1 Ki (nM)) of 0.0334 nM.
Same read-out and setting: the result for `O=C1NCCN(CC(F)(F)C2CC(CO)CCO2)c2c1oc1ccc(C(F)(F)F)cc21` (single isomer, unassigned) [Example 15] reads 0.0289 nM.
Take `O=C1NCCN(CC(F)(F)C2CC(O)(C(F)F)CCO2)c2c1oc1ccc(C(F)(F)F)cc21` (single isomer, unassigned) [Example 52]: the Ki (read-out: hPim1 Ki) was determined as 0.104 nM.
Still for that read-out and setting: then `O=C1NCCN(CC(F)(F)C2CC(O)(C(F)F)CCO2)c2c1oc1ccc(C(F)(F)F)cc21` (single isomer, unassigned) [Example 53], with 0.0921 nM; and `O=C1NCCN(CC(F)(F)C2COCCO2)c2c1oc1ccc(C(F)(F)F)cc21` (single isomer, unassigned) [Example 68], with 0.0461 nM.
For `O=C1NCCN(CC(F)(F)C2COCCO2)c2c1oc1ccc(C(F)(F)F)cc21` (single isomer, unassigned) [Example 70], the inhibition constant (Ki) (read-out: hPim1 Ki) turned out to be 0.0734 nM.
The same measure, in the same setting: then `O=C1NCCN(CCC2CCC(O)(C(F)(F)CO)CC2)c2c1oc1ccc(C(F)(F)F)cc21` (single isomer, unassigned) [Example 118], with 0.127 nM; and `O=C1NCCN(CCC2CCC(O)(C(F)(F)CO)CC2)c2c1oc1ccc(C(F)(F)F)cc21` (single isomer, unassigned) [Example 119], with 0.144 nM; and `CC1(O)CCC(CCN2CC3(CC3)NC(=O)c3oc4ccc(C(F)(F)F)cc4c32)CC1` (single isomer, unassigned) [Example 127], with 0.0532 nM.
Same read-out and setting: the result for `CC1(O)CCC(CCN2CC3(CC3)NC(=O)c3oc4ccc(C(F)(F)F)cc4c32)CC1` (single isomer, unassigned) [Example 128] reads 0.031 nM; that for `CC1(O)CCC(C(F)(F)CN2CCNC(=O)c3oc4ccc(C(F)(F)F)cc4c32)CC1` (single isomer, unassigned) [Example 147], 0.213 nM; that for `CC1(O)CCC(C(F)(F)CN2CCNC(=O)c3oc4ccc(C(F)(F)F)cc4c32)CC1` (single isomer, unassigned) [Example 148], 0.114 nM.
`O=C1NCCN(CCC2CC(O)CCO2)c2c1oc1ccc(C(F)(F)F)cc21` (stereo not shown) [Example 1]: the Ki (read-out: hPim1 Ki) is 0.697 nM.
Consider `CC1(C)OC[C@]2(CC[C@H](CCN3CCNC(=O)c4oc5ccc(C(F)(F)F)cc5c43)CC2)O1` [Example 2-01], for which, where the note is “read-out: hPim1 Ki”, the Ki stood at 1.6 nM.
Consider `O=C1OC[C@]2(CC[C@H](CCN3CCNC(=O)c4oc5ccc(C(F)(F)F)cc5c43)CC2)O1` [Example 2-02], for which the Ki (read-out: hPim1 Ki) stood at 0.43 nM.
Consider `CN1CCN(CC[C@H]2CC[C@](O)(CO)CC2)c2c(oc3ccc(C(F)(F)F)cc23)C1=O` [Example 2-03], for which the inhibitory constant (Ki) (read-out: hPim1 Ki) was determined as 0.414 nM.

Broadly, the Ki is the dissociation constant of the complex between target and ligand, obtained from inhibition or displacement.

The values above are taken from patent US11643417B2, “Tetrahydrobenzofurodiazepinone compound and pharmaceutical use thereof” (priority 2020, dated 2023).
